Where two headings read alike, the source gives them in different places. No end group written: not given here.

One test deals with F. moniliforme. The test is described as follows: Antifungal activity of synthetic peptides (MIC/MCIC). Format: cell-based.
The next test concerns F. graminearum. Format: cell-based.
The subject of another test is A. flavus. As to the kind of experiment: Antifungal activity of synthetic peptides (MIC/MCIC). Format: cell-based.

For the substance “Cecropin A (KWKLFKKIEKVGQNIRDGIIKAGPAVAVVGQATQIAK; ends and bridges not checked; UniProt P01507 27-63, looked up)”, the MCIC in the test on F. moniliforme was more than 80; with F. graminearum (F. graminearum, score of 3 or greater (≥80% growth inhibition)), more than 80 µg/mL; with A. flavus, more than 80. In addition, the MIC in the test with F. moniliforme came to 80 µg/mL; with F. graminearum (F. graminearum, score of 1 or greater (25% growth inhibition)) it was 60 µg/mL; against A. flavus it was 80 µg/mL.
Take KLKKALRWLARHAK [Peptide 20]: the MIC against C. nebraskense, against A. tumefaciens and with E. coli was 3.13 μg per ml in each case.
Take KWKKALRALARHLK [Peptide 19]: the MIC against C. nebraskense stood at 3.13 μg per ml; against A. tumefaciens, 6.25 μg per ml; with E. coli, 6.25 μg per ml.
Mastoparan: the MIC in the test with F. moniliforme (F. moniliforme, score of 1 or greater (25% growth inhibition)) amounted to 2.5 µg/mL; with F. graminearum it was 5 µg/mL; against A. flavus (A. flavus, concentration achieving a score of 1 or greater (25% growth inhibition)), 20 µg/mL. The MCIC with F. moniliforme (F. moniliforme, score of 3 or greater (≥80% growth inhibition)) was 10 µg/mL; in the test on F. graminearum it was 10; in the test on A. flavus (A. flavus, concentration achieving a score of 3 or greater (≥80% growth inhibition)), 40 µg/mL.
On to RRIYRAIRHIPRRIR [Peptide 22], for which the MIC against C. nebraskense (C. nebraskense) was 12.5 μg per ml; against E. coli (E. coli) it was 3.13 μg per ml.

The values above are taken from US5607914A, “Synthetic antimicrobial peptides” (Pioneer Hi-Bred International, Inc., priority 1994, dated 1997).
